Literature values as cited in US9393439B2, “Radiotherapy combined with hypoxic cell sensitizers” (IntraOp Medical Corporation, priority 2010, dated 2016).

Conditions: patients, single dose administration; above this level the incidence of side effects increases

Compound: O=C(Cn1ccnc1[N+](=O)[O-])NCCO [Etanidazole, etanidazole]
- maximum tolerated dose (dose that may safely be given): 12 gm/m^2
